Assay results as given in patent US20240287080A1 (IDEAYA Biosciences Inc., priority 2021, published 2024).

Molecular target: T1, Pol theta (1-899) (Homo sapiens, UniProt O75417)
T1 construct: Pol theta (1-899) (5 nM) in assay buffer
Experiment: Pol theta ATPase activity, NADH oxidation-coupled enzymatic assay (ATPase NADH coupling: Standard Screening: hPolQ)
Assay type: biochemical
Settings: Pol theta (1-899) 5 nM, NADH oxidation-coupled ATPase assay; compounds of Table 3
Summary of the method: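 Rates of ATP hydrolysis taken from 60-min A340 traces of NADH oxidation via PK/LDH coupling, then fit four-parameter for IC50, Hill slope and max inhibition. Enzyme (5 nM, 1-899) and compounds preincubated 15 min before ATP 100 μM and 50-thymine ssDNA 300 nM (stock, equal volume added).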

T1 sequence (O75417 1-899): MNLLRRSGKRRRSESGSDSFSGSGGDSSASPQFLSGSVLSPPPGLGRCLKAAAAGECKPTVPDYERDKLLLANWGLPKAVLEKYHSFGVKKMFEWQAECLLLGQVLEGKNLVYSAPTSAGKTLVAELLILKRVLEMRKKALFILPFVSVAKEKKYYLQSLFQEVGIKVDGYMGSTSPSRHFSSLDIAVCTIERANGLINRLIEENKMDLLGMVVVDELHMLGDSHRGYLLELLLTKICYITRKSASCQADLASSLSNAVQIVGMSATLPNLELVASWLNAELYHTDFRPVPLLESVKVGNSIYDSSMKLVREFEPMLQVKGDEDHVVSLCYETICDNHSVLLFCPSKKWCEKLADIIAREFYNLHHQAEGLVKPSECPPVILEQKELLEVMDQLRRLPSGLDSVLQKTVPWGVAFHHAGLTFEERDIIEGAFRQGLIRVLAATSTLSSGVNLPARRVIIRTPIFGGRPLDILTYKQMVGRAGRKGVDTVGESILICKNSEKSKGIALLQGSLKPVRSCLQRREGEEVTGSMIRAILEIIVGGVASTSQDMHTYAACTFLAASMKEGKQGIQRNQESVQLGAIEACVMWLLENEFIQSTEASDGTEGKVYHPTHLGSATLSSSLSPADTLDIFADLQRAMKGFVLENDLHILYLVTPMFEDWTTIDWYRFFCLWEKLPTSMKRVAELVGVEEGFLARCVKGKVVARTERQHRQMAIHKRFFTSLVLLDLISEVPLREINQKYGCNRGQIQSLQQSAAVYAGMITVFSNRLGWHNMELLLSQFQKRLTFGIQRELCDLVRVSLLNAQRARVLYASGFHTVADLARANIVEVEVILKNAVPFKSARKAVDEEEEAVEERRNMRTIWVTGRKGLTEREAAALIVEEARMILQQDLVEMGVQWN

SMILES	IC50
COc1cnc(Cl)cc1-c1cc(C)ncc1C(=O)Nc1nnc(O[C@H]2CCCN(C3CCOC3)C2)s1 (stereo in doubt) [Example 310, 2′-chloro-5′-methoxy-6-methyl-N-(5-(((S)-1-((S)-tetrahydrofuran-3-yl)piperidin-3-yl)oxy)-1,3,4-thiadiazol-2-yl)-[4,4′-bipyridine]-3-carboxamide]	≤ 200 nM
COc1nnc(NC(=O)c2cnc(C)cc2-c2ccc3c(c2)OC(F)(F)O3)s1 [Example 349, 4-(2,2-difluoro-2H-1,3-benzodioxol-5-yl)-N-(5-methoxy-1,3,4-thiadiazol-2-yl)-6-methylpyridine-3-carboxamide]	1000 to 10000 nM
COc1cnc(C)c(F)c1-c1cc(C)ncc1C(=O)Nc1nnc(OCCN(C)CC(F)(F)F)s1 [Example 258, 3′-fluoro-5′-methoxy-2′,6-dimethyl-N-(5-(2-(methyl(2,2,2-trifluoroethyl)amino)ethoxy)-1,3,4-thiadiazol-2-yl)-[4,4′-bipyridine]-3-carboxamide]	≤ 200 nM
COc1nnc(NC(=O)c2cnc(C)cc2-c2cccc3ncccc23)s1 [Example 485, N-(5-methoxy-1,3,4-thiadiazol-2-yl)-6-methyl-4-(quinolin-5-yl)nicotinamide]	200 to 500 nM
CC[S@+]([O-])c1cc(OC)c(-c2cc(C)ncc2C(=O)Nc2nnc(OC)s2)cc1Cl (single isomer, unassigned) [Example 312]	500 to 1000 nM
COc1nnc(NC(=O)c2cnc(C)cc2-c2cccc(-c3ccn(C)n3)c2)s1 [Example 453, N-(5-methoxy-1,3,4-thiadiazol-2-yl)-6-methyl-4-[3-(1-methyl-1H-pyrazol-3-yl)phenyl]pyridine-3-carboxamide]	1000 to 10000 nM
COc1nnc(NC(=O)c2cnc(C)cc2-c2cc(C)cc(F)c2)s1 [Example 405, 4-(3-fluoro-5-methylphenyl)-N-(5-methoxy-1,3,4-thiadiazol-2-yl)-6-methylpyridine-3-carboxamide]	200 to 500 nM
COc1cnc(Cl)cc1-c1cc(C)ncc1C(=O)Nc1nnc(OC2CCN(CC(F)(F)F)CC2)s1 [Example 278, 2′-chloro-5′-methoxy-6-methyl-N-(5-((1-(2,2,2-trifluoroethyl)piperidin-4-yl)oxy)-1,3,4-thiadiazol-2-yl)-[4,4′-bipyridine]-3-carboxamide]	200 to 500 nM

Results, then the compound that gave them:

IC50	SMILES
200 to 500 nM	COc1nnc(NC(=O)c2cnc(C)cc2-c2cccc3ccoc23)s1 [Example 367, 4-(1-benzofuran-7-yl)-N-(5-methoxy-1,3,4-thiadiazol-2-yl)-6-methylpyridine-3-carboxamide]
500 to 1000 nM	COc1nnc(NC(=O)c2cnc(C)cc2-c2cc(Cl)c([S+](C)[O-])cc2OC)s1 (single isomer, unassigned) [Example 298]
500 to 1000 nM	COc1nnc(NC(=O)c2cnc(C)cc2-c2cc(Br)c([S@+](C)[O-])cc2OC)s1 (single isomer, unassigned) [Example 322]
1000 to 10000 nM	COc1nnc(NC(=O)c2cc(-c3cc(Cl)ncc3OC)ncc2C)s1 [Example 285, 2′-chloro-5′-methoxy-N-(5-methoxy-1,3,4-thiadiazol-2-yl)-5-methyl-[2,4′-bipyridine]-4-carboxamide]
200 to 500 nM	COc1cnc(Cl)cc1-c1cc(C)ncc1C(=O)Nc1nnc(O[C@@H]2C[C@H](F)CN(C(C)C)C2)s1 (single isomer, unassigned) [Example 283]
200 to 500 nM	COc1nnc(NC(=O)c2nnc(C)cc2-c2cc(Cl)ncc2OC)s1 [Example 294, 4-(2-chloro-5-methoxypyridin-4-yl)-N-(5-methoxy-1,3,4-thiadiazol-2-yl)-6-methylpyridazine-3-carboxamide]
1000 to 10000 nM	COc1nnc(NC(=O)c2cnc(C)cc2-c2ccc3[nH]ccc3c2)s1 [Example 352, 4-(1H-indol-5-yl)-N-(5-methoxy-1,3,4-thiadiazol-2-yl)-6-methylpyridine-3-carboxamide]
1000 to 10000 nM	COc1nnc(NC(=O)c2cnc(C)cc2-c2cccc3nn(C)cc23)s1 [Example 489, N-(5-methoxy-1,3,4-thiadiazol-2-yl)-6-methyl-4-(2-methyl-2H-indazol-4-yl)pyridine-3-carboxamide]

Same assay, conditions: Table 4; Pol theta (1-899) 5 nM, ATP, dT50 ssDNA

SMILES	IC50
COc1cnc(Cl)cc1-c1cc(C)ncc1C(=O)Nc1nnc(OC2CCCCC2)s1 [Example 12, 2′-chloro-N-(5-(cyclohexyloxy)-1,3,4-thiadiazol-2-yl)-5′-methoxy-6-methyl-(4,4′-bipyridine)-3-carboxamide]	≤ 200 nM
COc1nnc(NC(=O)c2cnc(C)cc2-c2ccccc2OC(F)F)s1 [Example 36, 4-(2-(difluoromethoxy)phenyl)-N-(5-methoxy-1,3,4-thiadiazol-2-yl)-6-methylnicotinamide]	≤ 200 nM
COc1nnc(NC(=O)c2cnc(C)cc2-c2cc(C)ncc2Cl)s1 [Example 41, 5′-chloro-N-(5-methoxy-1,3,4-thiadiazol-2-yl)-2′,6-dimethyl-(4,4′-bipyridine)-3-carboxamide]	≤ 200 nM
COc1nnc(NC(=O)c2cnc(C)cc2-c2cc3[nH]cnc3cc2OC)s1 [Example 71, N-(5-methoxy-1,3,4-thiadiazol-2-yl)-4-(5-methoxy-1H-benzo(d)imidazol-6-yl)-6-methylnicotinamide]	1000 to 10000 nM
COc1nnc(NC(=O)c2c[n+]([O-])c(C)cc2-c2cc(Cl)ncc2OC)s1 [Example 65, 2′-chloro-5′-methoxy-5-((5-methoxy-1,3,4-thiadiazol-2-yl)carbamoyl)-2-methyl-(4,4′-bipyridine) 1-oxide]	500 to 1000 nM
COc1cnc(Cl)cc1-c1cc(C)ncc1C(=O)Nc1nnc(OC2COC2)s1 [Example 13, 2′-chloro-5′-methoxy-6-methyl-N-(5-(oxetan-3-yloxy)-1,3,4-thiadiazol-2-yl)-(4,4′-bipyridine)-3-carboxamide]	≤ 200 nM

The remaining lines, values ahead:

IC50	SMILES
≤ 200 nM	COc1nnc(NC(=O)c2cnc(C)cc2-c2c(F)cccc2Cl)s1 [Example 38, 4-(2-chloro-6-fluorophenyl)-N-(5-methoxy-1,3,4-thiadiazol-2-yl)-6-methylnicotinamide]
500 to 1000 nM	COc1nnc(NC(=O)c2cnc(C)cc2-c2ccccc2OC)s1 [Example 54, N-(5-methoxy-1,3,4-thiadiazol-2-yl)-4-(2-methoxyphenyl)-6-methylnicotinamide]
≤ 200 nM	COc1nnc(NC(=O)c2cnc(C)cc2-c2cc(Cl)ncc2OC(F)F)s1 [Example 48, 2′-chloro-5′-(difluoromethoxy)-N-(5-methoxy-1,3,4-thiadiazol-2-yl)-6-methyl-(4,4′-bipyridine)-3-carboxamide]

Same assay, conditions: Table 5; Pol theta (1-899) 5 nM, ATP, dT50 ssDNA

SMILES	IC50
COc1cnc(Cl)c(F)c1-c1cc(C)ncc1C(=O)Nc1nnc(O[C@H]2CCC[C@H](O)C2)s1 (single isomer, unassigned) [Example 156]	≤ 200 nM
COc1cnc(Cl)cc1-c1cc(C)ncc1C(=O)Nc1nnc(O[C@@H]2CO[C@H](C)C2)s1 (single isomer, unassigned) [Example 189]	≤ 200 nM
Cc1cc(-c2cc(Cl)ncc2OC(F)F)c(C(=O)Nc2nnc(O[C@H]3CC[C@@](C)(O)CC3)s2)cn1 (single isomer, unassigned) [Example 220, 2′-chloro-5′-(difluoromethoxy)-N-(5-(((1s,4s)-4-hydroxy-4-methylcyclohexyl)oxy)-1,3,4-thiadiazol-2-yl)-6-methyl-(4,4′-bipyridine)-3-carboxamide]	≤ 200 nM
COc1cnc(Cl)c(F)c1-c1cc(C)ncc1C(=O)Nc1nnc(O[C@H]2CC[C@@](C)(O)CC2)s1 (single isomer, unassigned) [Example 171, 2′-chloro-3′-fluoro-N-(5-(((1s,4s)-4-hydroxy-4-methylcyclohexyl)oxy)-1,3,4-thiadiazol-2-yl)-5′-methoxy-6-methyl-(4,4′-bipyridine)-3-carboxamide]	≤ 200 nM
COc1cnc(Br)cc1-c1cc(C)ncc1C(=O)Nc1nnc(OC2COC2)s1 [Example 188, 2′-bromo-5′-methoxy-6-methyl-N-(5-(oxetan-3-yloxy)-1,3,4-thiadiazol-2-yl)-(4,4′-bipyridine)-3-carboxamide]	≤ 200 nM
COc1cnc(C)c(F)c1-c1cc(C)ncc1C(=O)Nc1nnc(OC2COC2)s1 [Example 204]	≤ 200 nM
COc1cnc(Cl)cc1-c1cc(C)ncc1C(=O)Nc1nnc(O[C@H]2CCO[C@@H]2C)s1 (single isomer, unassigned) [Example 115]	≤ 200 nM
COc1cnc(Cl)c(F)c1-c1cc(C)ncc1C(=O)Nc1nnc(O[C@H]2CC[C@](C)(O)CC2)s1 (single isomer, unassigned) [Example 172, 2′-chloro-3′-fluoro-N-(5-(((1r,4r)-4-hydroxy-4-methylcyclohexyl)oxy)-1,3,4-thiadiazol-2-yl)-5′-methoxy-6-methyl-(4,4′-bipyridine)-3-carboxamide]	≤ 200 nM
COc1cnc(Cl)c(F)c1-c1cc(C)ncc1C(=O)Nc1nnc(O[C@H]2CCC[C@@H](O)C2)s1 (single isomer, unassigned) [Example 154]	≤ 200 nM

The remaining lines, values ahead:

IC50	SMILES
200 to 500 nM	COc1nnc(NC(=O)c2cnc(C3CCCC3)cc2-c2cc(Cl)ncc2OC)s1 [Example 143, 2′-chloro-6-cyclopentyl-5′-methoxy-N-(5-methoxy-1,3,4-thiadiazol-2-yl)-(4,4′-bipyridine)-3-carboxamide]
≤ 200 nM	COc1cnc(Cl)cc1-c1cc(C)ncc1C(=O)Nc1nnc(OC2CCC3(CCCO3)CC2)s1 (single isomer, unassigned) [Example 174, N-(5-(((5r,8s)-1-oxaspiro(4.5)decan-8-yl)oxy)-1,3,4-thiadiazol-2-yl)-2′-chloro-5′-methoxy-6-methyl-(4,4′-bipyridine)-3-carboxamide]
≤ 200 nM	COc1cnc(Cl)cc1-c1cc(C)ncc1C(=O)Nc1nnc(O[C@@H]2COC(C)(C)C2)s1 (single isomer, unassigned) [Example 130]
≤ 200 nM	COc1cnc(Cl)cc1-c1cc(C)ncc1C(=O)Nc1nnc(O[C@H]2CCC[C@@](C)(O)C2)s1 (single isomer, unassigned) [Example 179]
